{"source": "patent US20130079526A1", "about": "“Synthesis of Chirally Purified Substituted Benzothiazole Diamines” (priority 2010, published 2013)", "key": {"humans": {"system": "humans", "conditions": "dose as low as; cited from earlier work"}, "rodents [1]": {"system": "rodents"}, "human subjects": {"system": "human subjects", "conditions": "cited from earlier work"}, "dogs": {"system": "dogs", "conditions": "single oral dose, and above; cited from earlier work"}, "rodents [2]": {"system": "rodents", "conditions": "single oral dose, and above; cited from earlier work"}, "monkeys": {"system": "monkeys", "conditions": "single oral dose; cited from earlier work"}}}
{"smiles": "CCCN[C@H]1CCc2nc(N)sc2C1", "note": "[pramipexole, (6S)-4,5,6,7-tetrahydro-N6-propyl-2,6-benzothiazole-diamine]", "values": [{"measurement": "dose shown to cause somnolence", "setting": "humans", "value": 1.5, "unit": "mg"}, {"measurement": "equivalent human dose of the rodent lethal dose", "setting": "rodents [1]; human equivalent", "value": "7 to 12", "unit": "mg/kg"}, {"measurement": "equivalent human dose of the rodent lethal dose for a 70 kg individual", "setting": "rodents [1]; rodents, in vivo", "value": "500 to 850", "unit": "mg"}, {"measurement": "initial single dose not tolerated", "setting": "human subjects", "value": "greater than 0.20 mg"}, {"measurement": "dose at which vomiting occurred", "setting": "dogs", "value": "≥ 0.0007", "unit": "mg/kg"}, {"measurement": "dose at which death occurred", "setting": "rodents [2]", "value": "70 to 105", "unit": "mg/kg"}, {"measurement": "dose at which major excitation was displayed", "setting": "monkeys", "value": 3.5, "unit": "mg/kg"}]}
